Laboratory results as given in paper PMC3070159 (Journal of medicinal chemistry, 2010).

Molecular target: T1, human sEH (Homo sapiens, UniProt P34913)
T1 sequence (P34913 1-555): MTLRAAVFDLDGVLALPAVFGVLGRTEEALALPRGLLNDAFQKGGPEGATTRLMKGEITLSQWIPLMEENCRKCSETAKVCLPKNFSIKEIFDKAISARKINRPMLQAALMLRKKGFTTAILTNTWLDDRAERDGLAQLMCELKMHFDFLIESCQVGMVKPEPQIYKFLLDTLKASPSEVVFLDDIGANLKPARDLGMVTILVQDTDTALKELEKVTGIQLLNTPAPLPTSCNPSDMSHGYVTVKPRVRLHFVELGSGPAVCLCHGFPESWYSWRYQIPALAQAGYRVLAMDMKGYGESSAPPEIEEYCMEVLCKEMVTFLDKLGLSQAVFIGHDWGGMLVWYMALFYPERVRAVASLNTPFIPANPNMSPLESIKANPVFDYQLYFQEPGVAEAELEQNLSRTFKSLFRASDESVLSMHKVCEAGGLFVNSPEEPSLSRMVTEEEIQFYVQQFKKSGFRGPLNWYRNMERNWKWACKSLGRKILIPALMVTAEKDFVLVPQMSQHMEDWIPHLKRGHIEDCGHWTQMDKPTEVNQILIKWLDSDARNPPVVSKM
Assay: fluorescent substrate
Type: biochemical

Row | Structure (SMILES) | change fold | fold increase in potency relative to N4-methyl substituted analog 16c (human sEH IC50 ratio) [fold] | fold increase in potency relative to N4-unsubstituted analog 24c (human sEH IC50 ratio) [fold]
1 | CC(C)(C)OC(=O)N1CCN(CCCCOc2ccccc2NC(=O)NC23CC4CC(CC(C4)C2)C3)CC1 [Compound 21a] | 191 | – | –
2 | CC(=O)N1CCN(CCCOc2ccc(NC(=O)NC34CC5CC(CC(C5)C3)C4)cc2)CC1 [Compound 28c, 1-(4-(3-(4-acetylpiperazin-1-yl)propoxy)phenyl)-3-adamantan-1-ylurea] | – | 5.4 | 47.2
3 | CC(=O)N1CCN(CCCCOc2ccc(NC(=O)NC34CC5CC(CC(C5)C3)C4)cc2)CC1 [Compound 29c, 1-(4-(4-(4-acetylpiperazin-1-yl)butoxy)phenyl)-3-adamantan-1-yl urea] | −2.9 | – | –
